# Experimental data from PubChem BioAssay AID1963958 (Molecular Pharmacology Branch, DTP, NCI, 2024).
# Test system: MDA-MB-231 multicell spheroids, viability
# Assay: Anticancer human tumor MDA-MB-231 cell line growth inhibition [PI3K];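 further: spheroids exposed to agents for seven days before reading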;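 on viability, T/C: percent of vehicle control luminescence with DMSO treated spheroids as 100%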
# Settings: for viability, T/C: stronger effect = lower value
# Procedure, shortened: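 We assembled tumor spheroids that included a stromal compartment of HUVEC and MSCs, then exposed them to targeted agents alone and together with PI3K pathway inhibitors. Concentration series descended by half-log from clinically achievable Cmax levels. Viability served as the endpoint.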
# [1] = curve of first compound, second compound 0.0316 µM
# [2] = curve of first compound, second compound 0.1 µM
# [3] = curve of first compound, second compound 0.316 µM
# [4] = curve of first compound, second compound 1 µM
# [5] = curve of first compound, second compound 3.16 µM
# [6] = curve of first compound, second compound 10 µM
# [7] = second compound 0.0316 µM, first compound 0.0316 µM
# [8] = second compound 0.0316 µM, first compound 0.1 µM
# [9] = second compound 0.0316 µM, first compound 0.316 µM
# [10] = second compound 0.0316 µM, first compound 1 µM
# [11] = second compound 0.0316 µM, first compound 3.16 µM
# [12] = second compound 0.0316 µM, first compound 10 µM
# [13] = second compound 0.1 µM, first compound 0.0316 µM
# [14] = second compound 0.1 µM, first compound 0.1 µM
# [15] = second compound 0.1 µM, first compound 0.316 µM
# [16] = second compound 0.1 µM, first compound 1 µM
# [17] = second compound 0.1 µM, first compound 3.16 µM
# [18] = second compound 0.1 µM, first compound 10 µM
# [19] = second compound 0.316 µM, first compound 0.0316 µM
# [20] = second compound 0.316 µM, first compound 0.1 µM
# [21] = second compound 0.316 µM, first compound 0.316 µM
# [22] = second compound 0.316 µM, first compound 1 µM
# [23] = second compound 0.316 µM, first compound 3.16 µM
# [24] = second compound 0.316 µM, first compound 10 µM
# [25] = second compound 1 µM, first compound 0.0316 µM
# [26] = second compound 1 µM, first compound 0.1 µM
# [27] = second compound 1 µM, first compound 0.316 µM
# [28] = second compound 1 µM, first compound 1 µM
# [29] = second compound 1 µM, first compound 3.16 µM
# [30] = second compound 1 µM, first compound 10 µM
# [31] = second compound 3.16 µM, first compound 0.0316 µM
# [32] = second compound 3.16 µM, first compound 0.1 µM
# [33] = second compound 3.16 µM, first compound 0.316 µM
# [34] = second compound 3.16 µM, first compound 1 µM
# [35] = second compound 3.16 µM, first compound 3.16 µM
# [36] = second compound 3.16 µM, first compound 10 µM
# [37] = second compound 10 µM, first compound 0.0316 µM
# [38] = second compound 10 µM, first compound 0.1 µM
# [39] = second compound 10 µM, first compound 0.316 µM
# [40] = second compound 10 µM, first compound 1 µM
# [41] = second compound 10 µM, first compound 3.16 µM
# [42] = second compound 10 µM, first compound 10 µM
smiles,measurement,setting,value
Cn1nccc1Nc1nccc(-c2ccn(C(CO)c3ccc(Cl)c(F)c3)c(=O)c2)n1 (stereo not given) + Cc1nc(NC(=O)N2CCCC2C(N)=O)sc1-c1ccnc(C(C)(C)C(F)(F)F)c1,IC50,[1],610 nM
same,IC50,[2],423 nM
same,IC50,[3],151 nM
same,IC50,[4],88.1 nM
same,IC50,[5],57.6 nM
same,IC50,[6],< 31.6 nM
same,"viability, T/C",[7],75.6%
same,"viability, T/C",[8],65%
same,"viability, T/C",[9],56.1%
same,"viability, T/C",[10],45.3%
same,"viability, T/C",[11],36.5%
same,"viability, T/C",[12],26%
same,"viability, T/C",[13],66.2%
same,"viability, T/C",[14],58.1%
same,"viability, T/C",[15],54%
same,"viability, T/C",[16],41.6%
same,"viability, T/C",[17],35.7%
same,"viability, T/C",[18],22.4%
same,"viability, T/C",[19],62.2%
same,"viability, T/C",[20],49.5%
same,"viability, T/C",[21],46.7%
same,"viability, T/C",[22],37.6%
same,"viability, T/C",[23],29.3%
same,"viability, T/C",[24],21.9%
same,"viability, T/C",[25],56.6%
same,"viability, T/C",[26],47.2%
same,"viability, T/C",[27],43.6%
same,"viability, T/C",[28],34.6%
same,"viability, T/C",[29],25.1%
same,"viability, T/C",[30],19.7%
same,"viability, T/C",[31],53.8%
same,"viability, T/C",[32],47.2%
same,"viability, T/C",[33],37.8%
same,"viability, T/C",[34],34.3%
same,"viability, T/C",[35],24.2%
same,"viability, T/C",[36],16.7%
same,"viability, T/C",[37],43.2%
same,"viability, T/C",[38],37.1%
same,"viability, T/C",[39],33%
same,"viability, T/C",[40],29.6%
same,"viability, T/C",[41],21.9%
same,"viability, T/C",[42],10.6%
CC(Cn1ccc(-c2ccc(C#N)c(Cl)c2)n1)NC(=O)c1cc(C(C)O)[nH]n1 (stereo not given),"viability, T/C",compound 0.0316 µM,106% [middle of 4 runs]
same,"viability, T/C",compound 0.1 µM,99% [middle of 4 runs]
same,"viability, T/C",compound 0.316 µM,111% [middle of 4 runs]
same,"viability, T/C",compound 1 µM,107% [middle of 4 runs]
same,"viability, T/C",compound 3.16 µM,100% [middle of 4 runs]
same,"viability, T/C",compound 10 µM,92.5% [middle of 4 runs]
same,IC50,curve of compound,> 10000 nM
CC(=O)c1c(C)c2cnc(Nc3ccc(N4CCNCC4)cn3)nc2n(C2CCCC2)c1=O + CC(Nc1ncnc2nc[nH]c12)c1cc2cccc(Cl)c2c(=O)n1-c1ccccc1,IC50,[1],> 100 nM
same,IC50,[2],86.2 nM
same,IC50,[3],75.3 nM
same,IC50,[4],36.1 nM
same,IC50,[5],11.4 nM
same,IC50,[6],< 0.316 nM
same,"viability, T/C","second compound 0.0316 µM, first compound 0.000316 µM",96.8%
same,"viability, T/C","second compound 0.0316 µM, first compound 0.001 µM",107%
same,"viability, T/C","second compound 0.0316 µM, first compound 0.00316 µM",92.6%
same,"viability, T/C","second compound 0.0316 µM, first compound 0.01 µM",90.6%
same,"viability, T/C",[7],72.8%
same,"viability, T/C",[8],53.2%
same,"viability, T/C","second compound 0.1 µM, first compound 0.000316 µM",98.8%
same,"viability, T/C","second compound 0.1 µM, first compound 0.001 µM",99.6%
same,"viability, T/C","second compound 0.1 µM, first compound 0.00316 µM",96.1%
same,"viability, T/C","second compound 0.1 µM, first compound 0.01 µM",80.5%
same,"viability, T/C",[13],71.3%
same,"viability, T/C",[14],46.5%
same,"viability, T/C","second compound 0.316 µM, first compound 0.000316 µM",86.8%
same,"viability, T/C","second compound 0.316 µM, first compound 0.001 µM",90%
same,"viability, T/C","second compound 0.316 µM, first compound 0.00316 µM",92.6%
same,"viability, T/C","second compound 0.316 µM, first compound 0.01 µM",83.5%
same,"viability, T/C",[19],66.6%
same,"viability, T/C",[20],44.6%
same,"viability, T/C","second compound 1 µM, first compound 0.000316 µM",79.2%
same,"viability, T/C","second compound 1 µM, first compound 0.001 µM",79.9%
same,"viability, T/C","second compound 1 µM, first compound 0.00316 µM",78.4%
same,"viability, T/C","second compound 1 µM, first compound 0.01 µM",65.1%
same,"viability, T/C",[25],52.9%
same,"viability, T/C",[26],36%
same,"viability, T/C","second compound 3.16 µM, first compound 0.000316 µM",62.5%
same,"viability, T/C","second compound 3.16 µM, first compound 0.001 µM",60.1%
same,"viability, T/C","second compound 3.16 µM, first compound 0.00316 µM",55.3%
same,"viability, T/C","second compound 3.16 µM, first compound 0.01 µM",51.1%
same,"viability, T/C",[31],43.1%
same,"viability, T/C",[32],29.6%
same,"viability, T/C","second compound 10 µM, first compound 0.000316 µM",42.6%
same,"viability, T/C","second compound 10 µM, first compound 0.001 µM",47.5%
same,"viability, T/C","second compound 10 µM, first compound 0.00316 µM",41.2%
same,"viability, T/C","second compound 10 µM, first compound 0.01 µM",38%
same,"viability, T/C",[37],36.1%
same,"viability, T/C",[38],19%
C[C@@H](NC(=O)c1ncnc(N)c1Cl)c1ncc(C(=O)Nc2cc(C(F)(F)F)c(Cl)cn2)s1 + Cc1nc(NC(=O)N2CCCC2C(N)=O)sc1-c1ccnc(C(C)(C)C(F)(F)F)c1,IC50,[1],> 10000 nM
same,IC50,[2],3770 nM
same,IC50,[3],860 nM
same,IC50,[4],352 nM
same,IC50,[5],94.7 nM
same,IC50,[6],< 31.6 nM
same,"viability, T/C",[7],112%
same,"viability, T/C",[8],77.8%
same,"viability, T/C",[9],75%
same,"viability, T/C",[10],72.1%
same,"viability, T/C",[11],61.3%
same,"viability, T/C",[12],44.9%
same,"viability, T/C",[13],99.4%
same,"viability, T/C",[14],77.2%
same,"viability, T/C",[15],61.8%
same,"viability, T/C",[16],67.7%
same,"viability, T/C",[17],53.6%
same,"viability, T/C",[18],41.3%
same,"viability, T/C",[19],81%
same,"viability, T/C",[20],63.7%
same,"viability, T/C",[21],53.9%
same,"viability, T/C",[22],50.2%
same,"viability, T/C",[23],49.9%
same,"viability, T/C",[24],37.1%
same,"viability, T/C",[25],74.8%
same,"viability, T/C",[26],61%
same,"viability, T/C",[27],47.1%
same,"viability, T/C",[28],44.8%
same,"viability, T/C",[29],38.8%
same,"viability, T/C",[30],29.2%
same,"viability, T/C",[31],60.2%
same,"viability, T/C",[32],48.7%
same,"viability, T/C",[33],40.6%
same,"viability, T/C",[34],37.7%
same,"viability, T/C",[35],35.7%
same,"viability, T/C",[36],27.4%
same,"viability, T/C",[37],42.3%
same,"viability, T/C",[38],37.2%
same,"viability, T/C",[39],32.3%
same,"viability, T/C",[40],30.9%
same,"viability, T/C",[41],24.6%
same,"viability, T/C",[42],14.9%
CC1(C)CCC(Nc2ncc(C(F)(F)F)c(-c3c[nH]c4c(P(C)(C)=O)c(C#N)ccc34)n2)CN1 (stereo not given) + CC(Nc1ncnc2nc[nH]c12)c1cc2cccc(Cl)c2c(=O)n1-c1ccccc1,IC50,[1],31.6 nM
same,IC50,[2],31.6 nM
same,IC50,[3],31.6 nM
same,IC50,[4],< 31.6 nM
same,IC50,[5],< 31.6 nM
same,IC50,[6],< 31.6 nM
same,"viability, T/C",[7],46.4%
same,"viability, T/C",[8],37.8%
same,"viability, T/C",[9],41.4%
same,"viability, T/C",[10],53.5%
same,"viability, T/C",[11],60.6%
same,"viability, T/C",[12],5.54%
same,"viability, T/C",[13],46.3%
same,"viability, T/C",[14],38.5%
same,"viability, T/C",[15],40.7%
same,"viability, T/C",[16],51.6%
same,"viability, T/C",[17],55.6%
same,"viability, T/C",[18],5.27%
same,"viability, T/C",[19],45.7%
same,"viability, T/C",[20],39.4%
same,"viability, T/C",[21],42.5%
same,"viability, T/C",[22],48.6%
same,"viability, T/C",[23],54.2%
same,"viability, T/C",[24],6.2%
same,"viability, T/C",[25],43.9%
same,"viability, T/C",[26],34.7%
same,"viability, T/C",[27],38.6%
same,"viability, T/C",[28],49.4%
same,"viability, T/C",[29],49.6%
same,"viability, T/C",[30],4.82%
same,"viability, T/C",[31],39.8%
same,"viability, T/C",[32],37%
same,"viability, T/C",[33],42.2%
same,"viability, T/C",[34],44.9%
same,"viability, T/C",[35],36%
same,"viability, T/C",[36],4.74%
same,"viability, T/C",[37],38.4%
same,"viability, T/C",[38],34.6%
same,"viability, T/C",[39],36%
same,"viability, T/C",[40],33.2%
same,"viability, T/C",[41],35.5%
same,"viability, T/C",[42],3.53%
